Data published in patent publication US20100104628A1, “METHOD OF TREATING NEUROBLASTOMA” (priority 2007, published 2010).
Several values for one entry are separate records, joined by “and”; a condition that tells them apart may be missing. Identical values can stand only once. Like-named read-outs stand apart in the source and are kept apart here.

Experiments:
[1] = tested on: IMR32 (NET 0/+); assay: Cytotoxicity, MTT assay, IMR32; format: cell-based; conditions: 24 hr assay, 1% EtOH
[2] = tested on: MCF7 (no NET); assay: Glutathione depletion in vitro, MCF7; format: cell-based, human; conditions: 7 hrs
Method: (§1) The NB cell line SK—N-BE(2c) (high net) was treated with MIBG, MIBG-disulfide dimer (MIGB-S—S-MIBG), chloromethyl-MIBG (cmMIBG), and BSO. For comparison, the human breast cancer line MCF7 (no NET) was treated with chloromethyl-MIBG and BSO. At specific times, intracellular glutathione in drug-treated cells was determined relative to that in untreated cells (control).
(§2) Cells were exposed to 5 μM chloromethyl-MIBG (cmMIBG), 25 μM BSO and a combination of 5 μM chloromethyl-MIBG+25 μM BSO (both) for 7 hrs. Compared to controls, chloromethyl-MIBG alone depleted glutathione by about 30% in SK—N—Be(2c) cells and 8% in MCF7. BSO, as expected, depleted MCF7 and SK—N—Be(2c) by similar amounts (42 and 54% of controls, respectively). In combination studies, chloromethyl-MIBG+BSO depleted levels by about 85% in the SK—N—Be(2c) cells and had much less effect on the MCF7 cells with glutathione reduced by 49% relative to controls.

[3] = tested on: SK—N-BE(2c) (high NET); assay: Glutathione depletion in vitro, SK-N-BE(2c); format: cell-based; conditions: for glutathione depletion compared to controls: 7 hrs
Method: as §1
SK—N-BE(2c) (high NET) cells were treated with a single concentration of chloromethyl-MIBG (25 μM at t=0). Glutathione concentrations in treated and untreated cells were measured at t=0.5, 1, 2, 3 and 4 hrs. Glutathione levels in drug-treated cells progressively fell, with a concentration 50% that of control at t 4 hrs (FIG. 10B).
as §2

[4] = target: T1, NET (Homo sapiens, UniProt P23975); assay: NET competitive binding assay ([125I]MIBG displacement, SK-N-SH cells); conditions: 5 μM test compound, 2 hr incubation
T1 construct: endogenous in cells; host or cells: SK-N-SH neuroblastoma cells
T1 sequence (P23975 whole entry): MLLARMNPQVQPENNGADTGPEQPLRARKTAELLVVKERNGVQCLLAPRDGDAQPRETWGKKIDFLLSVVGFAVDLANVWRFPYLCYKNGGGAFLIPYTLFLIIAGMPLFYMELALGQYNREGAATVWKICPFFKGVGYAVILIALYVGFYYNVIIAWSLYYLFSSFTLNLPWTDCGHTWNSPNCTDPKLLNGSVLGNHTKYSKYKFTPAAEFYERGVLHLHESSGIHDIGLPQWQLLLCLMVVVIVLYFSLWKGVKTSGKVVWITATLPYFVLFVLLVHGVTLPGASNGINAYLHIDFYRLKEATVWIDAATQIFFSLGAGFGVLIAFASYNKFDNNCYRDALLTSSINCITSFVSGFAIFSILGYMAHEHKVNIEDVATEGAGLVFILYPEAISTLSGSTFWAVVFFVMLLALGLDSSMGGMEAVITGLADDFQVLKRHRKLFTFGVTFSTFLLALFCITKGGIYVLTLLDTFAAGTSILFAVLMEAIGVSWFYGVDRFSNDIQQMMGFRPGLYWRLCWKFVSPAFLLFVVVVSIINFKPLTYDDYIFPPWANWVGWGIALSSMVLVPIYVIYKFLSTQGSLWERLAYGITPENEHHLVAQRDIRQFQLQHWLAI
Method: An assay to assess binding of various MIBG-analogs to the NET was performed by published methods (Vaidynathan et al, Nucl. Med. Commun. 25:947-955 (2004), Vaidynathan et al, Bioorg. Med. Chem. 12:1649-1656 (2004), Vaidynathan et al, Bioconjugate Chem. 12:798-806 (2001), Vaidynathan et al, Eur. J. Nucl. Med. Mol. Imaging 31:1362-1370 (2004)). In brief, neuroblastoma SK—N—SH cells (moderate levels of NET) were treated with [^125I]MIBG and with increasing concentrations of unlabeled MIBG or MIBG-analogs. At the end of a 2 hr incubation and appropriate work-up, the cell-bound radioactivity was counted. Total cell-bound radioactivity minus non-specific cell-bound radioactivity gave a value for specific binding which was plotted in FIG. 9 against the concentration of test compounds. At 5 μM, cold MIBG displaced “100%” of the labeled-MIBG (i.e., “zero” cell-bound radioactivity). At 5 μM, chloromethyl-MIBG displaced 83%; the disulfide MIBG-SS-ethyl and the ester MIBG-phenylbutyrate displaced 50-55%; and hydroxymethyl-MIBG displaced 27%.

[5] = Maximum tolerated dose (MTD) study in mice; format: in vivo
Method: The MTD study utilized 4 groups of 5 HRLN female nu/nu mice. Mice in each group were injected i.v. with a single dose of chloromethyl-MIBG in 1% DMSO in water [5, 10, 15, or 20 mg/kg (drug/animal)]. Drug solutions were made fresh at room temperature and injections were completed within 20 minutes of making the drug solution (under these conditions, the half-life of chloromethyl-MIBG was estimated to be >10 hrs). The dosing volume was 0.20 mL/20 g mouse (adjusted accordingly for body weight). Animals were followed for 21 days post-injection; body weight was monitored daily for 5 days and then biweekly. The “endpoint MTD” was defined as a mean weight loss of >20% or death of >10% of animals in a group.

[6] = tested on: SK-N-BE(2c) (NET ++++); assay: cells; format: cell-based
[7] = tested on: SK-N-SH (NET ++); assay: Cytotoxicity, MTT assay, SK-N-SH; format: cell-based
[8] = tested on: SK-N-MC (NET ++); assay: Cytotoxicity, MTT assay, SK-N-MC; format: cell-based; conditions: 24 hr assay, 1% EtOH
[9] = Stability / reaction kinetics by proton NMR (half-life); format: physicochemical
Text: Proton NMR was used to determine the half-lives for chloro- and bromomethyl-MIBG (Table 1). These analogs react with nucleophiles via an SN2 mechanism; therefore, the rate of the reaction depends on the strength and concentration of the nucleophile as well as the nature of the leaving group. Thus, the half-lives of the analogs are predictably longer in buffer than they are in buffer with added glutathione (a relatively strong nucleophile) and, under the same conditions, the bromo analog (better leaving group) reacts faster than the chloro analog.

[10] = tested on: MCF7 (NET 0); assay: in vitro; format: cell-based, human
[11] = (101×C3H)F1 male mice, cited from earlier work
[12] = in vitro; format: cell-based, human; conditions: human; for IC50 at 24 h: 24 hr assay
[13] = groups dosed at 10, 15 and 20 mg/kg i.v.
[14] = 24 hr assay, 1% EtOH, read-out: Cytotoxicity IC50
[15] = 24 hr assay, single agent, 1% DMSO, read-out: Cytotoxicity IC50
[16] = 48 hr assay (24 h exposure + 24 h recovery), Table 3, read-out: Cytotoxicity IC50
[17] = 48 hr assay, + 1.5 μM desipramine (40 min pre-treatment, then co-incubation), read-out: Cytotoxicity IC50, NET inhibition experiment
[18] = 48 hr assay, single agent, Table 4, read-out: Cytotoxicity IC50
[19] = 48 hr assay, without desipramine, read-out: Cytotoxicity IC50, NET inhibition experiment

N=C(N)NCc1ccc(CCl)c(I)c1 [Chloromethyl-MIBG]
IC50 [1]: 63 µM | glutathione depletion compared to controls ([2]; 5 μM chloromethyl-MIBG): 8% | glutathione depletion compared to controls ([3]; 5 μM chloromethyl-MIBG): about 30% | glutathione concentration relative to control ([3]; 25 μM at t=0, measured at 4 hrs): 50% | displacement of [125I]MIBG (specific cell-bound radioactivity) [4]: 83% | animal deaths over the course of the study ([5]; 5-20 mg/kg single i.v. dose, 21 days): no animal deaths | MTD ([5]; HRLN female nu/nu mice, single i.v. dose, 21 days follow-up): > 20 mg/kg | adverse signs upon drug injection [5, 13]: signs of hypoactivity, labored breathing, darkening of skin color, and/or seizures/tremors | time for adverse symptoms to go away [5, 13]: ≤ 30 s | IC50 [6, 14]: 5 µM | IC50 [6, 15]: 5.7 ± 1.5 µM | IC50 [6, 16]: 4.63 ± 1.58 µM | IC50 [6, 17]: 14.3 ± 1.7 µM | IC50 [6, 18]: 4.6 ± 1.6 µM | IC50 [6, 19]: 3.2 ± 0.6 µM | increase in IC50 in presence of desipramine ([6]; with vs without desipramine): ~5 fold | IC50 [7, 16]: 18.4 ± 9.1 µM | IC50 [7, 18]: 18.4 ± 9.1 µM | IC50 [8]: 25 µM | half-life of drug solution ([9]; 1% DMSO in water, room temperature, estimated): > 10 h | Half-life ([9]; 37° C., pH 7.4, BisTris buffer, 5% DMSO): 9.67 ± 0.417 h | Half-life w/10 eq GSH ([9]; 37° C., pH 7.4, BisTris buffer, 5% DMSO, 10 eq GSH): 50.6 ± 3.2 s | IC50 [10, 14]: 50 µM | IC50 [10, 15]: 56.9 ± 6.2 µM | IC50 [10, 16]: 14.3 ± 2.13 µM | IC50 [10, 17]: 20.2 ± 1.9 µM | IC50 [10, 18]: 14.3 ± 2.1 µM | IC50 [10, 19]: 19.8 ± 1.3 µM

CCCCS(=N)(=O)CCC(N)C(=O)O (stereo not drawn) [BSO, buthionine sulfoximine]
glutathione depletion compared to controls ([2]; 25 μM BSO): 42% | glutathione depletion compared to controls ([3]; 25 μM BSO): 54%

N=C(N)NCc1cccc(I)c1 [MIBG, meta-iodobenzylguanidine]
IC50 [6, 15]: 167 µM and 200 µM | IC50 [6, 16]: 142 ± 21 µM | IC50 [7, 16]: 190 ± 22 µM | IC50 [10, 15]: 227 µM and 232 µM | IC50 [10, 16]: 137 ± 27 µM

N=C(N)NCc1cccc([131I])c1 [MIBG, meta-iodobenzylguanidine]
effect on glutathione levels ([3]; concentrations up to 25 μM, incubation up to 4 hrs): did not significantly affect glutathione levels | displacement of [125I]MIBG (specific cell-bound radioactivity) [4]: 100%

N=C(N)NCc1ccc(CO)c(I)c1 [hydroxymethyl-MIBG]
displacement of [125I]MIBG (specific cell-bound radioactivity) [4]: 27%

N[C@@H](Cc1ccc(N(CCCl)CCCl)cc1)C(=O)O [Melphalan]
death rate ([11]; 20 mg/kg single injection i.p., by one week): 100% | MTD ([11]; single injection, i.p.): 10 to 15 mg/kg | IC50 ([6]; SK-N-BE(2)-C, 24 h, read-out: Cytotoxicity IC50, 24 hr assay, single agent, 1% DMSO): 36.2 ± 5.2 µM | IC50 ([6]; SK-N-BE(2)-C, 24 h, read-out: Cytotoxicity IC50 of melphalan, 24 hr assay, + 5 μM MIBG): 43.5 ± 7 µM | IC50 ([6]; SK-N-BE(2)-C, 24 h, read-out: Cytotoxicity IC50 of melphalan, 24 hr assay, + 5 μM cmMIBG (Table 2D)): 11.3 ± 5.4 µM | IC50 ([6]; SK-N-BE(2)-C, 24 h, read-out: Cytotoxicity IC50 of melphalan, competition experiment, 24 hr assay, + 5 μM cmMIBG + 5 μM MIBG): 22.9 µM | IC50 ([6]; SK-N-BE(2)-C, 24 h, read-out: Cytotoxicity IC50 of melphalan, competition experiment, 24 hr assay, + 5 μM cmMIBG plus vehicle (no MIBG)): 8.1 µM | IC50 ([6]; SK-N-BE(2)-C, 48 h, read-out: Cytotoxicity IC50, 48 hr assay, single agent, Table 4): 25.8 ± 3.5 µM | IC50 ([6]; SK-N-BE(2)-C, 48 h, read-out: Cytotoxicity IC50 of melphalan, 48 hr assay, + 1 μM cmMIBG added at same time): 13.9 ± 4.7 µM | IC50 ([6]; SK-N-BE(2)-C, 48 h, read-out: Cytotoxicity IC50 of melphalan, 48 hr assay, + 5 μM cmMIBG added at same time): 7.3 ± 1.3 µM | IC50 ([6]; SK-N-BE(2)-C, read-out: Cytotoxicity IC50, 48 hr assay (24 h exposure + 24 h recovery), Table 3): 25.8 ± 3.54 µM | IC50 ([6]; SK-N-BE(2)-C, read-out: Cytotoxicity IC50 of melphalan, 48 hr assay, cells treated with 1 μM cmMIBG for 3 hrs, then melphalan added): 14 ± 3.7 µM | IC50 ([6]; SK-N-BE(2)-C, read-out: Cytotoxicity IC50 of melphalan, 48 hr assay, cells treated with 5 μM cmMIBG for 3 hrs, then melphalan added): 10.2 ± 0.9 µM | IC50 ([7]; Homo sapiens, SK-N-SH, 48 h, read-out: Cytotoxicity IC50, 48 hr assay, single agent, Table 4): 54.1 ± 13.8 µM | IC50 ([7]; Homo sapiens, SK-N-SH, 48 h, read-out: Cytotoxicity IC50 of melphalan, 48 hr assay, + 1 μM cmMIBG added at same time): 36.7 ± 18.7 µM | IC50 ([7]; Homo sapiens, SK-N-SH, 48 h, read-out: Cytotoxicity IC50 of melphalan, 48 hr assay, + 5 μM cmMIBG added at same time): 29.9 ± 10.6 µM | IC50 ([7]; Homo sapiens, SK-N-SH, read-out: Cytotoxicity IC50, 48 hr assay (24 h exposure + 24 h recovery), Table 3): 54.1 ± 13.8 µM | IC50 ([7]; Homo sapiens, SK-N-SH, read-out: Cytotoxicity IC50 of melphalan, 48 hr assay, cells treated with 1 μM cmMIBG for 3 hrs, then melphalan added): 29.8 ± 4.8 µM | IC50 ([7]; Homo sapiens, SK-N-SH, read-out: Cytotoxicity IC50 of melphalan, 48 hr assay, cells treated with 5 μM cmMIBG for 3 hrs, then melphalan added): 38.4 ± 7.7 µM | IC50 at 24 h ([12]; + 5 μM MIBG, read-out: Cytotoxicity IC50 of melphalan): 386 ± 181 µM | IC50 at 24 h ([12]; + 5 μM cmMIBG (Table 2D), read-out: Cytotoxicity IC50 of melphalan): 276 ± 28 µM | IC50 at 24 h ([12]; single agent, 1% DMSO, read-out: Cytotoxicity IC50): 250 ± 112 µM | IC50 at 48 h [12, 16]: 126 ± 28 µM | IC50 at 48 h ([12]; 48 hr assay, + 1 μM cmMIBG added at same time, read-out: Cytotoxicity IC50 of melphalan): 127 ± 17 µM | IC50 at 48 h ([12]; 48 hr assay, + 5 μM cmMIBG added at same time, read-out: Cytotoxicity IC50 of melphalan): 75 ± 25 µM | IC50 at 48 h ([12]; 48 hr assay, cells treated with 1 μM cmMIBG for 3 hrs, then melphalan added, read-out: Cytotoxicity IC50 of melphalan): 60 ± 7 µM | IC50 at 48 h ([12]; 48 hr assay, cells treated with 5 μM cmMIBG for 3 hrs, then melphalan added, read-out: Cytotoxicity IC50 of melphalan): 43 ± 11 µM | IC50 at 48 h [12, 18]: 126 ± 28 µM
